The target in this assay is T1, recombinant human TGF-β1 (Homo sapiens, UniProt P01137).
T1 construct: purchased R&D systems
Nature of the assay: SBE reporter assay in SBE reporter-HEK293 cells, TGF-β1 stimulation. The format is cell-based. Particulars: TGF-β1 0.13 nM, 18 hours; for inhibition at 75 pM: peptide 0.075 nM; for inhibition at 0.00075 µM: peptide 0.75 nM; for inhibition at 0.0075 µM: peptide 7.5 nM; for inhibition at 0.075 µM: peptide 75.0 nM. The text has this: The inhibitory activity of the peptide can be calculated without limitation while the maximum signal induced by TGF-β is set to 0% inhibition and no stimulation is set to 100% inhibition. When the peptide is used at an appropriate concentration, for example, at the optimal concentration, the inhibitory activity is not limited but the inhibition is 5% or more, 10% or more, 20% or more, 30% or more, 40% or more, 50% or more, 60% or more, 70% or more, 80% or more, or 90% or more.
In this Example, the TGF-β1 inhibitory activity of the peptide of the present invention consisting of the amino acid sequence set forth in SEQ ID NOs: 2-33 synthesized in Examples 1 to 5 and 7 was evaluated by an SBE reporter assay using the SBE reporter-HEK293 cell system (BP Bioscience) as follows.
SBE reporter-HEK293 cells were cultured in E-MEM (Wako) containing 10% FBS (Sigma). The cells were detached using Accutase (Innovative Cell Technologies), suspended in E-MEM containing 0.5% FBS, seeded onto a 96-well plate(s) at a concentration of 45,000 cells per well, and cultured overnight. The next day, the peptide was added and allowed to stand for 20 min, and recombinant human TGF-β1 (R&D systems) or recombinant human TGF-β2 (R&D systems) was then added at 0.13 nM and cultured for 18 hours.
Thereafter, luciferase assay ONE-Glo reagent was added to each well and the plate was shaken for 5 min. A SpectraMax Paradigm multimode microplate reader (Molecular Devices) was then used for signal detection. The obtained signals were analyzed by GraphPad Prism. The inhibitory activity of the peptide was calculated while the maximum signal induced by TGF-β was set to 0% inhibition and no stimulation was set to 100% inhibition.
For orientation: In a reporter assay the amount or activity of a reporter protein is the signal.

Molecules are shown by their SMILES. Starred links: 1 amine or outer side, 2 acyl side, 3 side chain; linkers in the order of their positions; H or OH if unused. Positions of bridges follow the written chain, without caps; N, C: chain ends. Non-standard residues stand in square brackets, D forms with d. Residues, ends and D or L forms follow the SMILES beside them. Groups on a side chain read outwards from the residue. *: point of attachment. Meglumine = CN(C[C@H](O)[C@@H](O)[C@H](O)[C@H](O)CO)*; Trp(6-aza) = N[C@@H](Cc1c[nH]c2cnccc12)C(=O)O; Trp(7-aza) = N[C@@H](Cc1c[nH]c2ncccc12)C(=O)O; Piperazinyl(4-CH2COOH) = O=C(O)CN1CCN(*)CC1; 1Nal = N[C@@H](Cc1cccc2ccccc12)C(=O)O; Gly(NCH2CH2Ph) = O=C(O)CNCCc1ccccc1; 4Pal = N[C@@H](Cc1ccncc1)C(=O)O; CO = O=C([*:1])[*:2]

The inhibition is the change of the read-out against control, counted positive when it falls.

T1 sequence (P01137 279-390 limits assumed): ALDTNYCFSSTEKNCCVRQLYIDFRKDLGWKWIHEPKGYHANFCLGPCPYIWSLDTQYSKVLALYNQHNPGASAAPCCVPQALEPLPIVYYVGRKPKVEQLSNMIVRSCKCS

Regarding `CC(C)[C@@H]1NC(=O)CN(CCc2ccccc2)C(=O)[C@H](CC(=O)O)NC(=O)[C@H](CC(=O)O)NC(=O)[C@H](Cc2ccncc2)NC(=O)[C@H](C(C)C)NC(=O)[C@H](CC(N)=O)NC(=O)[C@H](CCCCNC(=O)N(C)C[C@H](O)[C@@H](O)[C@H](O)[C@H](O)CO)NC(=O)[C@H](C(C)C)NC(=O)[C@H](Cc2cccc3ccccc23)NC(=O)[C@H](Cc2ccccc2)NC(=O)CSC[C@@H](C(=O)NCC(N)=O)NC(=O)[C@H](CCC(=O)O)NC(=O)[C@H](Cc2c[nH]cn2)NC(=O)[C@H](Cc2ccc(O)cc2)NC(=O)[C@H](Cc2cccc3ccccc23)NC1=O` [TGFb1_028] ({CH2CO}-F[1Nal]VK([CO-Meglumine])NV[4Pal]DD[Gly(NCH2CH2Ph)]V[1Nal]YHECG-NH2; thioether N-16), the inhibition at 62 pM (peptide 0.062 nM) is 0.94%. Further, for the setting “peptide 0.185 nM”, the inhibition at 0.000185 µM is 6.17%. Further, the inhibition at 0.00056 µM (peptide 0.56 nM) amounted to 20.4%. Besides, the inhibition at 0.0017 µM (peptide 1.7 nM) is 47.6%. Besides, the inhibition at 0.005 µM (peptide 5.0 nM) worked out at 73.9%. Moreover, the inhibition at 0.015 µM (peptide 15.0 nM) stood at 91.7%.

For the compound `CC(C)[C@@H]1NC(=O)CN(CCc2ccccc2)C(=O)[C@H](CCCCNC(=O)N(C)C[C@H](O)[C@@H](O)[C@H](O)[C@H](O)CO)NC(=O)[C@H](CC(=O)O)NC(=O)[C@H](Cc2ccncc2)NC(=O)[C@H](C(C)C)NC(=O)[C@H](CC(N)=O)NC(=O)[C@H](C(C)C)NC(=O)[C@H](C(C)C)NC(=O)[C@H](Cc2c[nH]c3ncccc23)NC(=O)[C@H](Cc2ccccc2)NC(=O)CSC[C@@H](C(=O)NCC(N)=O)NC(=O)[C@H](C(C)C)NC(=O)[C@H](Cc2c[nH]cn2)NC(=O)[C@H](Cc2ccc(O)cc2)NC(=O)[C@H](Cc2cccc3ccccc23)NC1=O` [TGFb1_018] ({CH2CO}-F[Trp(7-aza)]VVNV[4Pal]DK([CO-Meglumine])[Gly(NCH2CH2Ph)]V[1Nal]YHVCG-NH2; thioether N-16), the inhibition at 75 pM is 22.2%, the inhibition at 0.00075 µM was 61%, the inhibition at 0.0075 µM worked out at 97.6% and the inhibition at 0.075 µM is 99.9%.

For `CC(C)[C@@H]1NC(=O)CN(CCc2ccccc2)C(=O)[C@H](CC(=O)O)NC(=O)[C@H](CC(=O)O)NC(=O)[C@H](Cc2ccc(O)cc2)NC(=O)[C@H](C(C)C)NC(=O)[C@H](CC(N)=O)NC(=O)[C@H](C(C)C)NC(=O)[C@H](C(C)C)NC(=O)[C@H](Cc2c[nH]c3ccccc23)NC(=O)[C@H](Cc2ccccc2)NC(=O)CSC[C@@H](C(=O)NCC(N)=O)NC(=O)[C@H](C(C)C)NC(=O)[C@H](Cc2c[nH]cn2)NC(=O)[C@H](Cc2ccc(O)cc2)NC(=O)[C@H](Cc2cccc3ccccc23)NC1=O` [TGFb1_003] ({CH2CO}-FWVVNVYDD[Gly(NCH2CH2Ph)]V[1Nal]YHVCG-NH2; thioether N-16), the inhibition at 75 pM was determined as 1.6%, the inhibition at 0.00075 µM stood at 65.2%, the inhibition at 0.0075 µM is 97.3% and the inhibition at 0.075 µM was determined as 98.8%.

For `CC(C)[C@@H]1NC(=O)CN(CCc2ccccc2)C(=O)[C@H](CC(=O)O)NC(=O)[C@H](CC(=O)O)NC(=O)[C@H](Cc2ccncc2)NC(=O)[C@H](C(C)C)NC(=O)[C@H](CC(N)=O)NC(=O)[C@H](CCCCN)NC(=O)[C@H](C(C)C)NC(=O)[C@H](Cc2cccc3ccccc23)NC(=O)[C@H](Cc2ccccc2)NC(=O)CSC[C@@H](C(=O)NCC(N)=O)NC(=O)[C@H](C(C)C)NC(=O)[C@H](Cc2c[nH]cn2)NC(=O)[C@H](Cc2ccc(O)cc2)NC(=O)[C@H](Cc2cccc3ccccc23)NC1=O` [TGFb1_007] ({CH2CO}-F[1Nal]VKNV[4Pal]DD[Gly(NCH2CH2Ph)]V[1Nal]YHVCG-NH2; thioether N-16), the inhibition at 75 pM was found to be 0.1%, the inhibition at 0.00075 µM stood at 37.5%, the inhibition at 0.0075 µM was determined as 83.5% and the inhibition at 0.075 µM was 96.7%.

Regarding `CC(C)[C@@H]1NC(=O)CN(CCc2ccccc2)C(=O)[C@H](CC(=O)O)NC(=O)[C@H](CC(=O)O)NC(=O)[C@H](Cc2ccncc2)NC(=O)[C@H](C(C)C)NC(=O)[C@H](CC(N)=O)NC(=O)[C@H](C(C)C)NC(=O)[C@H](C(C)C)NC(=O)[C@H](Cc2cccc3ccccc23)NC(=O)[C@H](Cc2ccccc2)NC(=O)CSC[C@@H](C(=O)NCC(N)=O)NC(=O)[C@H](C(C)C)NC(=O)[C@H](Cc2c[nH]cn2)NC(=O)[C@H](Cc2ccncc2)NC(=O)[C@H](Cc2cccc3ccccc23)NC1=O` [TGFb1_009] ({CH2CO}-F[1Nal]VVNV[4Pal]DD[Gly(NCH2CH2Ph)]V[1Nal][4Pal]HVCG-NH2; thioether N-16), the inhibition at 75 pM came to 2.7%, the inhibition at 0.00075 µM stood at 53%, the inhibition at 0.0075 µM stood at 94.8% and the inhibition at 0.075 µM was 99.6%.

On to `CC(C)[C@@H]1NC(=O)CN(CCc2ccccc2)C(=O)[C@H](CCCCNC(=O)N2CCN(CC(=O)O)CC2)NC(=O)[C@H](CC(=O)O)NC(=O)[C@H](Cc2ccncc2)NC(=O)[C@H](C(C)C)NC(=O)[C@H](CC(N)=O)NC(=O)[C@H](C(C)C)NC(=O)[C@H](C(C)C)NC(=O)[C@H](Cc2cccc3ccccc23)NC(=O)[C@H](Cc2ccccc2)NC(=O)CSC[C@@H](C(=O)NCC(N)=O)NC(=O)[C@H](C(C)C)NC(=O)[C@H](Cc2c[nH]cn2)NC(=O)[C@H](Cc2ccc(O)cc2)NC(=O)[C@H](Cc2cccc3ccccc23)NC1=O` [TGFb1_011] ({CH2CO}-F[1Nal]VVNV[4Pal]DK([CO-Piperazinyl(4-CH2COOH)])[Gly(NCH2CH2Ph)]V[1Nal]YHVCG-NH2; thioether N-16), for which the inhibition at 75 pM was determined as 6.1%, the inhibition at 0.00075 µM amounted to 76.3%, the inhibition at 0.0075 µM turned out to be 97.9% and the inhibition at 0.075 µM was determined as 100%.

As for `CC(C)[C@@H]1NC(=O)CN(CCc2ccccc2)C(=O)[C@H](CC(=O)O)NC(=O)[C@H](CC(=O)O)NC(=O)[C@H](Cc2ccc(O)cc2)NC(=O)[C@H](C(C)C)NC(=O)[C@H](CC(N)=O)NC(=O)[C@H](C(C)C)NC(=O)[C@H](C(C)C)NC(=O)[C@H](Cc2c[nH]c3ncccc23)NC(=O)[C@H](Cc2ccccc2)NC(=O)CSC[C@@H](C(=O)NCC(N)=O)NC(=O)[C@H](C(C)C)NC(=O)[C@H](Cc2c[nH]cn2)NC(=O)[C@H](Cc2ccc(O)cc2)NC(=O)[C@H](Cc2cccc3ccccc23)NC1=O` [TGFb1_005] ({CH2CO}-F[Trp(7-aza)]VVNVYDD[Gly(NCH2CH2Ph)]V[1Nal]YHVCG-NH2; thioether N-16), the inhibition at 75 pM is 0.4%, the inhibition at 0.00075 µM is 47%, the inhibition at 0.0075 µM came to 90.8% and the inhibition at 0.075 µM was 98.9%.

Take `CC(C)[C@@H]1NC(=O)CN(CCc2ccccc2)C(=O)[C@H](CC(=O)O)NC(=O)[C@H](CC(=O)O)NC(=O)[C@H](Cc2ccc(O)cc2)NC(=O)[C@H](C(C)C)NC(=O)[C@H](CC(N)=O)NC(=O)[C@H](C(C)C)NC(=O)[C@H](C(C)C)NC(=O)[C@H](Cc2c[nH]c3cnccc23)NC(=O)[C@H](Cc2ccccc2)NC(=O)CSC[C@@H](C(=O)NCC(N)=O)NC(=O)[C@H](C(C)C)NC(=O)[C@H](Cc2c[nH]cn2)NC(=O)[C@H](Cc2ccc(O)cc2)NC(=O)[C@H](Cc2cccc3ccccc23)NC1=O` [TGFb1_004] ({CH2CO}-F[Trp(6-aza)]VVNVYDD[Gly(NCH2CH2Ph)]V[1Nal]YHVCG-NH2; thioether N-16): the inhibition at 75 pM worked out at 0%, the inhibition at 0.00075 µM came out at 0.9%, the inhibition at 0.0075 µM stood at 70.1% and the inhibition at 0.075 µM turned out to be 94.9%.

For the compound `CC(C)[C@@H]1NC(=O)CN(CCc2ccccc2)C(=O)[C@H](CC(=O)O)NC(=O)[C@H](CC(=O)O)NC(=O)[C@H](Cc2ccncc2)NC(=O)[C@H](C(C)C)NC(=O)[C@H](CC(N)=O)NC(=O)[C@H](C(C)C)NC(=O)[C@H](C(C)C)NC(=O)[C@H](Cc2c[nH]c3ncccc23)NC(=O)[C@H](Cc2ccccc2)NC(=O)CSC[C@@H](C(=O)NCC(N)=O)NC(=O)[C@H](C(C)C)NC(=O)[C@H](Cc2c[nH]cn2)NC(=O)[C@H](Cc2ccc(O)cc2)NC(=O)[C@H](Cc2cccc3ccccc23)NC1=O` [TGFb1_008] ({CH2CO}-F[Trp(7-aza)]VVNV[4Pal]DD[Gly(NCH2CH2Ph)]V[1Nal]YHVCG-NH2; thioether N-16), the inhibition at 75 pM worked out at 3.8%, the inhibition at 0.00075 µM is 56.8%, the inhibition at 0.0075 µM came to 94.6% and the inhibition at 0.075 µM was determined as 98.4%.
